Measurements: paper PMC5301048, “Selection and early clinical evaluation of the brain‐penetrant 11β‐hydroxysteroid dehydrogenase type 1 (11β‐HSD1) inhibitor UE2343 (Xanamem™)” (British Journal of Pharmacology, 2017)
Like-named read-outs stand apart in the source and are kept apart here.

What was measured:
human 11β‐HSD1 = target: T1, human 11β‐HSD1 (Homo sapiens, UniProt P28845); assay: Inhibition of human 11β-HSD1 in stably transfected HEK293 cells; format: cell-based
T1 construct: a construct containing the full‐length gene coding for the human 11β‐HSD1 enzyme; expressed in transfected cells; host or cells: HEK293
Protocol: Inhibition of human 11β‐HSD1 was determined in HEK293 cells stably transfected with a construct containing the full‐length gene coding for the human 11β‐HSD1 enzyme according to the protocol described by Sooy et al., 2010.

[1] = test system: HPA axis hormones and steroids; assay: Multiple ascending dose study, HPA axis hormones and steroids; format: in vivo; details: human, not significant vs placebo
Protocol: (§1) A double‐blind, randomized, placebo‐controlled multiple ascending dose study was carried out at Linear Clinical Research Ltd, Nedlands, Australia. Each cohort consisted of eight healthy male subjects. Each subject received UE2343 or placebo twice daily (b.i.d ) (12 hourly) in the fed state for 9 days (Day 1 to Day 9) and once on the morning of Day 10 (19 doses in total). Dose cohorts were 10, 20 and 35 mg. Dose escalation and selection was dependent upon satisfactory review of the blinded safety (up to Day 17 ± 2) and plasma pharmacokinetics (up to Day 12) data from the preceding cohort. Safety, pharmacokinetic and pharmacodynamic assessments were made at pre‐determined time‐points during each part of the study.
(§2) Laboratory evaluation of clinical safety parameters was carried out using standard validated methods. Measurement of plasma pharmacodynamic markers [adrenocorticotropic hormone (ACTH), cortisol, 4‐androstenedione, testosterone and dehydroepiandrosterone sulphate (DHEA‐s)] was carried out using commercially available kits. Each method was fully validated prior to analysis. Urinary steroid metabolites were measured according to established methods (Boonen et al., 2013). UE2343 levels in plasma, urine and CSF was determined by LC–MS/MS using fully validated methods.
The data and statistical analysis comply with the recommendations on experimental design and analysis in pharmacology (Curtis et al., 2015). Levels of probability, P < 0.05 were deemed to constitute the threshold for statistical significance. Pharmacokinetic parameters, except Tmax (time of maximum observed drug concentration), are given as mean ± coefficient of variation (CV%). Tmax is given as median ± range. For each of the pharmacodynamic parameters [ACTH, cortisol, adrenal androgens, tetrahydrocortisols (THFs)/tetrahydrocortisone (THE) ratio], the maximum % change from baseline for each subject was subjected to ANOVA. For selected data, an additional covariate factor for the baseline was also included in the ANOVA/analysis of covariance (ANCOVA) model. […]

[2] = Multiple ascending dose study, pharmacokinetics; format: in vivo; details: human; for AUC0–12h / Ae(0–12h) (%) / Ae(0–12h), amount excreted in urine / Oral clearance: mean (CV%); for estimated maximal CSF concentration / estimated mean CSF nadir at steady state (Cmin): calculated from plasma levels and CSF:plasma ratio; for Tmax / Cmax / half-life: plasma, oral
Protocol: as §1, §2
The data and statistical analysis comply with the recommendations on experimental design and analysis in pharmacology (Curtis et al., 2015). Levels of probability, P < 0.05 were deemed to constitute the threshold for statistical significance. Pharmacokinetic parameters, except Tmax (time of maximum observed drug concentration), are given as mean ± coefficient of variation (CV%). Tmax is given as median ± range. For each of the pharmacodynamic parameters [ACTH, cortisol, adrenal androgens, tetrahydrocortisols (THFs)/tetrahydrocortisone (THE) ratio], the maximum % change from baseline for each subject was subjected to ANOVA. For selected data, an additional covariate factor for the baseline was also included in the ANOVA/analysis of covariance (ANCOVA) model. Associated P‐values <0.05 for each comparison have been presented.

[3] = Clinical safety and tolerability in healthy subjects; format: in vivo, human
Protocol: A double‐blind, randomized, placebo‐controlled single ascending dose study was carried out at Simbec Research Ltd, Merthyr Tydfil, UK. Each cohort consisted of six healthy male subjects and two females of non‐child bearing potential. Two male ‘dose leader’ subjects (1 active : 1 placebo) were dosed first in each cohort. The remainder of the cohort (5 active : 1 placebo) were dosed 24 h later. Dose cohorts were 2, 5, 10, 18, 25 and 35 mg. Safety, pharmacokinetic and pharmacodynamic assessments were made at pre‐determined time‐points during each part of the study. Dose escalation was dependent upon satisfactory review of the blinded safety (up to Day 6) and pharmacokinetic (up to 24 h post‐dose) data from the preceding cohort.
as §1
A non‐randomized, open label, multiple dose phase I study to determine the pharmacokinetic parameters of UE2343 in CSF was carried out at Linear Clinical Research Ltd, Nedlands, Australia. Four healthy male subjects each received 35 mg UE2343 b.i.d (12 hourly) fed (30 min after the start of a standard meal) for 3 days (Day 1 to Day 3) and once on the morning of Day 4 (seven doses in total). Plasma pharmacokinetic samples were taken from each subject on Day 1 and Day 4. A single CSF sample was taken from each subject at 5 h post‐final dose on Day 4, corresponding to the plasma Tmax (time to maximum plasma concentration).
as §2

[4] = multiple ascending dose study, 24 subjects (active and placebo)
[5] = multiple ascending dose study, in words

T1 sequence (P28845 whole entry): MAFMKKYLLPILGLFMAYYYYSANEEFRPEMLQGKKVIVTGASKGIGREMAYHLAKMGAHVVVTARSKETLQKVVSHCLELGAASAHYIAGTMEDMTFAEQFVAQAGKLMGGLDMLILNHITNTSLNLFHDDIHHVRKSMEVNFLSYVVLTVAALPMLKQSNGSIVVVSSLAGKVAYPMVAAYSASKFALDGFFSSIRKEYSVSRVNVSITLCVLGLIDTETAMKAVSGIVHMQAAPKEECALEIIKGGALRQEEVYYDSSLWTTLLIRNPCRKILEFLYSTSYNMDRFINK

IC50 (human 11β‐HSD1; HEK293 cell IC50 in ng·mL^−1, read-out: IC50 value (11β‐HSD1) expressed as mass concentration (converted)): 23.6 nM
IC50 (human 11β‐HSD1; HEK293 cells, mean ± SD [n], read-out: Human 11β‐HSD1 IC50 in HEK293 cells): 24 ± 15 nM
AUC0–12h ([2]; 10 mg b.i.d, Day 1): 207 (79%) ng^.h·mL^−1
AUC0–12h ([2]; 10 mg b.i.d, Day 10): 1917 (66%) ng^.h·mL^−1
Oral clearance ([2]; 10 mg b.i.d, Day 10): 7.24 (60%) L·h^−1
estimated maximal CSF concentration ([2]; 10 mg b.i.d): 20 ng/mL
estimated mean CSF nadir at steady state (Cmin) ([2]; 10 mg b.i.d): 13 ng/mL
AUC0–12h ([2]; 20 mg b.i.d, Day 1): 623 (69%) ng^.h·mL^−1
AUC0–12h ([2]; 20 mg b.i.d, Day 10): 3175 (30%) ng^.h·mL^−1
Oral clearance ([2]; 20 mg b.i.d, Day 10): 6.85 (33%) L·h^−1
estimated maximal CSF concentration ([2]; 20 mg b.i.d): 34 ng/mL
estimated mean CSF nadir at steady state (Cmin) ([2]; 20 mg b.i.d): 22 ng/mL
AUC0–12h ([2]; 35 mg b.i.d, Day 1): 1843 (33%) ng^.h·mL^−1
AUC0–12h ([2]; 35 mg b.i.d, Day 10): 7909 (36%) ng^.h·mL^−1
Oral clearance ([2]; 35 mg b.i.d, Day 10): 5.02 (43%) L·h^−1
estimated maximal CSF concentration ([2]; 35 mg b.i.d): 81 ng/mL
estimated mean CSF nadir at steady state (Cmin) ([2]; 35 mg b.i.d): 50 ng/mL
day by which steady state was achieved ([2]; 12 hourly dosing): ≤ 5 days
increase in AUC0–12 from first dose to steady state ([2]; highest dose level (35 mg b.i.d), in words): greater than fourfold
Tmax ([2]; single and multiple dosing, range, read-out: plasma Tmax): 3 to 6 h
Cmax ([2]; male, 10 mg, 10 mg b.i.d, Day 1, mean (CV%)): 29.1 ng/mL
Tmax ([2]; male, 10 mg, 10 mg b.i.d, Day 1, median (range), read-out: Tmax): 6 h
Cmax ([2]; male, 10 mg, 10 mg b.i.d, Day 10, mean (CV%)): 207 ng/mL
half-life ([2]; male, 10 mg, 10 mg b.i.d, Day 10, mean (CV%), read-out: t 1/2 (converted)): 13.8 h
Tmax ([2]; male, 10 mg, 10 mg b.i.d, Day 10, median (range), read-out: Tmax): 4 h
Cmax ([2]; male, 20 mg, 20 mg b.i.d, Day 1, mean (CV%)): 89.2 ng/mL
Tmax ([2]; male, 20 mg, 20 mg b.i.d, Day 1, median (range), read-out: Tmax): 4 h
Cmax ([2]; male, 20 mg, 20 mg b.i.d, Day 10, mean (CV%)): 365 ng/mL
half-life ([2]; male, 20 mg, 20 mg b.i.d, Day 10, mean (CV%), read-out: t 1/2 (converted)): 11.2 h
Tmax ([2]; male, 20 mg, 20 mg b.i.d, Day 10, median (range), read-out: Tmax): 3 h
Cmax ([2]; male, 35 mg, 35 mg b.i.d, Day 1, mean (CV%)): 268 ng/mL
Tmax ([2]; male, 35 mg, 35 mg b.i.d, Day 1, median (range), read-out: Tmax): 4 h
Cmax ([2]; male, 35 mg, 35 mg b.i.d, Day 10, mean (CV%)): 892 ng/mL
half-life ([2]; male, 35 mg, 35 mg b.i.d, Day 10, mean (CV%), read-out: t 1/2 (converted)): 9.99 h
Tmax ([2]; male, 35 mg, 35 mg b.i.d, Day 10, median (range), read-out: Tmax): 4 h
half-life ([2]; male, 35 mg, multiple doses 10, 20 and 35 mg every 12 h, range across doses, read-out: terminal t 1/2): 10 to 14 h
Tmax ([2]; male, multiple doses, range across doses, read-out: median time to peak concentration following each dose): 4 to 6 h
Compound: O=C(c1csc(-c2cn[nH]c2)c1)N1C2CCC1CC(O)(c1ncccn1)C2 (centres unmarked) [compound 4]
mean maximum percentage change in ACTH (from baseline) ([1]; 10 mg b.i.d): 222%
mean maximum percentage change in ACTH (from baseline) ([1]; 20 mg b.i.d): 195%
mean maximum percentage change in ACTH (from baseline) ([1]; 35 mg b.i.d): 230%
Ae(0–12h) (%) ([2]; 10 mg b.i.d, Day 1): 0.35 (50%)
Ae(0–12h), amount excreted in urine ([2]; 10 mg b.i.d, Day 1): 34.6 (50%) μg
Ae(0–12h) (%) ([2]; 10 mg b.i.d, Day 10): 4.08 (46%)
Ae(0–12h), amount excreted in urine ([2]; 10 mg b.i.d, Day 10): 408 (46%) μg
Ae(0–12h) (%) ([2]; 20 mg b.i.d, Day 1): 0.54 (92%)
Ae(0–12h), amount excreted in urine ([2]; 20 mg b.i.d, Day 1): 107 (92%) μg
Ae(0–12h) (%) ([2]; 20 mg b.i.d, Day 10): 3.22 (38%)
Ae(0–12h), amount excreted in urine ([2]; 20 mg b.i.d, Day 10): 644 (38%) μg
Ae(0–12h) (%) ([2]; 35 mg b.i.d, Day 1): 1.03 (46%)
Ae(0–12h), amount excreted in urine ([2]; 35 mg b.i.d, Day 1): 362 (46%) μg
Ae(0–12h) (%) ([2]; 35 mg b.i.d, Day 10): 3.84 (29%)
Ae(0–12h), amount excreted in urine ([2]; 35 mg b.i.d, Day 10): 1345 (29%) μg
fraction excreted in urine in the dosing interval (% Ae) ([2]; at steady state (Day 10)): approximately 4%
safety and tolerability ([3]; 2 to 35 mg q.d and 10 to 35 mg b.i.d, in words): safe and well tolerated
intensity of TEAEs ([3]; CSF study, 35 mg b.i.d, in words): mild to moderate
increased alanine aminotransferase, subjects ([3]; CSF study, four subjects, in words): a single subject
diarrhoea, subjects [3, 4]: 2/24
headache (most common TEAE), subjects [3, 4]: 7/24
thrombophlebitis, subjects [3, 4]: 3/24
intensity of TEAEs [3, 5]: mild or moderate
serious TEAEs or TEAEs leading to withdrawal [3, 5]: No serious TEAEs
number of subjects with ≥1 TEAEs ([3]; single ascending dose study): 9
